Measured values published in patent publication US4130709A, “Pleuromutilin glycoside derivatives” (Eli Lilly and Company, priority 1977, dated 1978).
Values after ≈ are worked out from the molar mass of the structure shown. Where two headings read alike, the source gives them in different places.

Columns and labels:
[1] = system: Fusobacterium necrophorum; assay: standard agar-dilution test, anaerobic bacteria; type: cell-based
Clostridium perfringens = assay: microbe, parasite or virus in culture; type: cell-based; conditions: 24 h
Eubacterium aerofaciens = assay: standard agar-dilution test, anaerobic bacteria; type: cell-based; conditions: Collinsella aerofaciens, 24 h
[2] = system: Bacteroides melaninogenicus 2736; assay: standard agar-dilution test, anaerobic bacteria; type: cell-based
Bacteroides fragilis 111 = assay: standard agar-dilution test, anaerobic bacteria; type: cell-based; conditions: Bacteroides fragilis, 111, 24 h
[3] = system: Peptostreptococcus intermedius; assay: standard agar-dilution test, anaerobic bacteria; type: cell-based
[4] = system: Peptococcus asaccharolyticus; assay: standard agar-dilution test, anaerobic bacteria; type: cell-based; conditions: Peptoniphilus asaccharolyticus, 24-hour incubation
Peptococcus prevoti = assay: standard agar-dilution test, anaerobic bacteria; type: cell-based
[5] = system: Bacteroides thetaiotaomicron; assay: standard agar-dilution test, anaerobic bacteria; type: cell-based; conditions: 24-hour incubation
Procedure: (§1) Table IV summarizes the activity of typical compounds of this invention, as determined by the standard agar-dilution test.
(§2) *Endpoint read after 24-hour incubation

Clostridium septicum = assay: standard agar-dilution test, anaerobic bacteria; type: cell-based; conditions: 24-hour incubation
Procedure: as §1, §2

[6] = system: Peptostreptococcus anaerobius; assay: standard agar-dilution test, anaerobic bacteria; type: cell-based; conditions: 24-hour incubation
Bacteroides vulgatis = assay: standard agar-dilution test, anaerobic bacteria; type: cell-based
Fusobacterium symbiosum = assay: standard agar-dilution test, anaerobic bacteria; type: cell-based; conditions: Fusobacterium, 24 h
Bacteroides corrodens = assay: standard agar-dilution test, anaerobic bacteria; type: cell-based; conditions: Eikenella corrodens
Mycoplasma hyorhinis = assay: in vitro broth-dilution studies, mycoplasma; type: cell-based
Source text: (§3) The minimal inhibitory concentrations (MIC's) of a number of typical compounds of the present invention (R^2 =H in group tested) against various mycoplasma species, as determined by in vitro broth-dilution studies, are summarized in Table V.

Mycoplasma synoviae = assay: in vitro broth-dilution studies, mycoplasma; type: cell-based; conditions: Mycoplasmopsis synoviae
Source text: as §3

Mycoplasma gallisepticum = assay: in vitro broth-dilution studies, mycoplasma; type: cell-based; conditions: Mycoplasmoides gallisepticum
Source text: as §3

Actinomyces israelii = assay: standard agar-dilution test, anaerobic bacteria; type: cell-based; conditions: 24-hour incubation
[7] = toxicity (LD50) on intraperitoneal injection in mice; conditions: mouse, in vivo, ip; intraperitoneal injection, mice
[8] = system: Bacteroides fragilis 1936B; assay: standard agar-dilution test, anaerobic bacteria; type: cell-based
[9] = system: Bacteroides melaninogenicus 1856/28; assay: standard agar-dilution test, anaerobic bacteria; type: cell-based; conditions: Prevotella intermedia, 1856/28, 24 h
Spiroplasma citri = assay: in vitro inhibition of Spiroplasma citri measured by a color reaction; type: cell-based; parameters: key to Activity (color reaction): Red (R) includes complete inhibition; red-orange (RO) indicates partial inhibition; yellow (Y) indicates no inhibition
Procedure: In another important aspect, the compounds of this invention are active against Spiroplasmas. Spiroplasma citri is the causative agent of citrus-stubborn disease; another Spiroplasma, corn-stunt Spiroplasma, affects the growth of corn. Table VII summarizes the in vitro activity of representative compounds of the present invention (R^2 =H in this group) against Spiroplasma citri. In this test, inhibition of S. citri is measured by a color reaction. Red (R) includes complete inhibition; red-orange (RO) indicates partial inhibition; and yellow (Y) indicates no inhibition.

[10] = system: Bacteroides fragilis 1877; assay: standard agar-dilution test, anaerobic bacteria; type: cell-based
[11] = system: Staphylococcus aureus (H-Heatley) NRRL B-314; assay: in vitro turbidometric assay (Autoturb Microbiological Assay System) against Staphylococcus aureus; type: cell-based; conditions: nutrient broth pH 7, approximately 4 hours at 37° C., A-40104 factor A as standard
Procedure: The compounds are conveniently tested against a typical gram-positive organism, Staphylococcus aureus, using a turbidometric assay on a semi-automated system (Autoturb Microbiological Assay System, Elanco) described by N. R. Kuzel and F. W. Kavanagh in J. Pharmaceut. Sci, 60 (5), 764 and 767 (1971). In testing these compounds, the following parameters were used: Staphylococcus aureus (H-Heatley) NRRL B-314 in a nutrient broth medium (pH 7), incubated for approximately 4 hours at 37° C. Test samples and A-40104 factor A, which is used as a standard, were dissolved in water. The standard was presented to the Autoturb carrousel at concentrations of 1.25, 2.50, 3.75, 5.00 and 6.25 mcg/ml. Test compounds were diluted to contain approximately 2.5 to 5.0 mcg of activity per ml, as presented to the carrousel. The units of activity of some of the typical compounds of this invention (R^2 =H in group tested) in this in vitro assay are summarized in Table I

Mycoplasma hyopneumoniae = assay: in vitro broth-dilution studies, mycoplasma; type: cell-based; conditions: Mesomycoplasma hyopneumoniae
Source text: as §3

[12] = Bacteroides fragilis, 1936B, 24 h
[13] = Bacteroides fragilis, 1877, 24 h
[14] = 24-hour incubation, read-out: MIC
[15] = Peptococcus prevoti, 24-hour incubation, read-out: MIC

| Structure (SMILES) | MIC (Clostridium perfringens) [µg/mL] | MIC (Eubacterium aerofaciens) [µg/mL] | MIC ([2]; 2736, 24 h) [µg/mL] | MIC (Bacteroides fragilis 111) [µg/mL] | MIC ([3]; Peptostreptococcus, 24 h) [µg/mL] | MIC [4] [µg/mL] | MIC [5] [µg/mL] | MIC (Clostridium septicum) [µg/mL] | MIC [6] [µg/mL] | MIC (Bacteroides vulgatis; Bacteroides, 24 h) [µg/mL] | MIC (Fusobacterium symbiosum) [µg/mL] | MIC (Bacteroides corrodens; 24 h) [µg/mL] | MIC (Mycoplasma hyorhinis) [µg/mL] | MIC (Mycoplasma synoviae) [µg/mL] | MIC (Mycoplasma gallisepticum) [µg/mL] | MIC (Actinomyces israelii) [µg/mL] | MIC [8, 12] [µg/mL] | MIC [9] [µg/mL] | MIC [10, 13] [µg/mL] | MIC [1, 14] [µg/mL] | further results |
| --- | --- | --- | --- | --- | --- | --- | --- | --- | --- | --- | --- | --- | --- | --- | --- | --- | --- | --- | --- | --- | --- |
| CC[C@]1(C)C[C@@H](OC(=O)CO[C@H]2O[C@H](COC(C)=O)[C@@H](OC(C)=O)[C@H](OC(C)=O)C2=NO)[C@]2(C)[C@H](C)CC[C@]3(CCC(=O)[C@H]32)[C@@H](C)[C@@H]1O [Compound 8, 14-deoxy-14-[(2-deoxy-2-(hydroxyimino)-3,4,6-tri-O-acetyl-α-D-glucopyranosyl)oxyacetoxy]-19,20-dihydromutilin] | > 128 | > 128 | > 128 | > 128 | > 128 | 8 (≈ 11.7 µM) | > 128 | > 128 | 64 (≈ 93.9 µM) | > 128 | > 128 | > 128 | 6.25 (≈ 9.17 µM) | 6.25 (≈ 9.17 µM) | 3.12 (≈ 4.58 µM) | 8 (≈ 11.7 µM) | > 128 | > 128 | > 128 |  | MIC ([1]; 24 h): > 128 µg/mL; MIC (Peptococcus prevoti; 24 h): > 128 µg/mL; LD50 [7]: > 300 mg/kg; Activity (color reaction) (Spiroplasma citri; 0.1 ppm): Y; Activity (color reaction) (Spiroplasma citri; 1.0 ppm): R |
| C=C[C@]1(C)C[C@@H](OC(=O)CO[C@H]2O[C@H](COC(C)=O)[C@H](OC(C)=O)[C@H](OC(C)=O)C2=NO)[C@]2(C)[C@H](C)CC[C@]3(CCC(=O)[C@H]32)[C@@H](C)[C@@H]1O [Compound 9, 14-deoxy-14-[(2-deoxy-2-(hydroxyimino)-3,4,6-tri-O-acetyl-α-D-galactopyranosyl)oxyacetoxy]mutilin] | > 128 | > 128 | > 128 | > 128 | > 128 | 16 (≈ 23.5 µM) | > 128 | > 128 | 2 (≈ 2.94 µM) | > 128 | > 128 | > 128 | 1.56 (≈ 2.29 µM) | < 0.78 | < 0.78 | 1 (≈ 1.47 µM) | > 128 | > 128 | > 128 | 64 (≈ 94.2 µM) | MIC (Peptococcus prevoti; [15]): 16 µg/mL (≈ 23.5 µM); Units of Activity [11]: 53 to 54 µg/mg; MIC (Mycoplasma hyopneumoniae): 0.78 µg/mL (≈ 1.15 µM) |
| C=C[C@]1(C)C[C@@H](OC(=O)CS[C@@H]2O[C@H](COC(C)=O)[C@@H](OC(C)=O)[C@H](OC(C)=O)[C@H]2OC(C)=O)[C@]2(C)[C@H](C)CC[C@]3(CCC(=O)[C@H]32)[C@@H](C)[C@@H]1O [Compound 11, 14-deoxy-14-[(2,3,4,6-tetra-O-acetyl-β-D-glucopyranosyl)thioacetoxy]mutilin] | > 128 | > 128 |  | 128 (≈ 177 µM) |  | ≤ 0.5 | 16 (≈ 22.1 µM) | 16 (≈ 22.1 µM) | ≤ 0.5 |  | 128 (≈ 177 µM) |  | > 0.78 | 1.56 (≈ 2.15 µM) | > 0.78 | ≤ 0.5 |  | > 128 |  | 16 (≈ 22.1 µM) | MIC ([2]; Bacteroides melaninogenicus 2736, 24-hour incubation, read-out: MIC): 16 µg/mL (≈ 22.1 µM); MIC ([3]; Peptostreptococcus intermedius, 24-hour incubation, read-out: MIC): 1 µg/mL (≈ 1.38 µM); MIC (Peptococcus prevoti; [15]): ≤ 0.5 µg/mL; MIC (Bacteroides vulgatis; Bacteroides vulgatis, 24-hour incubation, read-out: MIC): 32 µg/mL (≈ 44.1 µM); Units of Activity [11]: 253 to 265 µg/mg; MIC (Bacteroides corrodens; Bacteroides corrodens, 24-hour incubation, read-out: MIC): 32 µg/mL (≈ 44.1 µM); MIC ([8]; Bacteroides fragilis 1936B, 24-hour incubation, read-out: MIC): 32 µg/mL (≈ 44.1 µM); MIC ([10]; Bacteroides fragilis 1877, 24-hour incubation, read-out: MIC): 32 µg/mL (≈ 44.1 µM) |
